Experiments:
[1] = test system: bile ducts formed from rCLiPs only; assay: CLF added to rCLiP bile ducts only, without primary hepatocytes (negative control, Example 1); type: in vitro ADME, rat; conditions: no hepatocytes, 2 hours after CLF addition, FIG. 3B
Experimental: The appearance 2 hours after the addition of the CLF solution was observed through the phase-contrast microscope and the fluorescence microscope (FIG. 3B).

[2] = test system: bile ducts formed from rCLiPs only; assay: CLF incubation of rCLiP bile ducts only, without human hepatocytes (negative control, Example 2); type: in vitro ADME, rat; conditions: no human hepatocytes, 30 min incubation in HBSS containing CLF, observed immediately, 4 and 24 hours after washing, FIG. 6B
Experimental: (§1) After the incubation, the cells were washed with MSS not containing CLF, and the appearances of the cells immediately, 4 hours, and 24 hours after the washing were observed through a phase-contrast microscope and a fluorescence microscope (FIG. 6B).

[3] = test system: bile ducts formed from the rCLiPs cocultured with human hepatocytes; assay: CLF transfer to bile ducts in coculture of rCLiP bile ducts and human hepatocytes; type: in vitro ADME; conditions: human hepatocytes cocultured 3 days; 30 min incubation in HBSS containing CLF; observed immediately, 4 and 24 hours after washing; excitation 470 nm; FIG. 6A
Description: (§2) It can be confirmed by various methods using labeled compounds that the glandular cavities and the ducts are functionally connected in the cultured tissue produced by the above-mentioned method. For example, a compound obtaining by labeling a compound the behavior of which in the glandular cavities and the ducts is known and which are objects to be confirmed can be used. The functional connection between the glandular cavities and the ducts can be specifically confirmed by confirming whether the labeled secretion or the analogue thereof is incorporated into the glandular cells, and the labeled secretion or the analogue thereof secreted from the glandular cells can be detected from the ducts. […] When CLF is incorporated into the hepatocytes cocultured with the bile ducts, and the fluorescence of CLF is detected from the bile ducts, it can be confirmed that CLF is secreted from the hepatocytes to the biliary canaliculi, and the secreted CLF moves to the bile ducts, namely that the biliary canaliculi and the bile ducts are functionally connected. […]
as §1, with “One day after the inoculation of the human hepatocytes, the medium was exchanged for BIM-2 medium. […] After” for “After”, “after” for “after the”, “6A). […]” for “6B).”

[4] = test system: bile ducts formed from the rCLiPs cocultured with rat primary hepatocytes; assay: CLF transfer to bile ducts in coculture of rCLiP bile ducts and rat primary hepatocytes; type: in vitro ADME; conditions: rat primary hepatocytes cocultured 3 days; observed 2, 24 and 72 hours after CLF addition; excitation 480 nm; FIG. 3A
Description: as §2
One day after the inoculation of the primary hepatocytes, the medium was exchanged for the BIM-2 medium. […] The appearances of the cells 2 hours, 24 hours, and 72 hours after the addition of the CLF solution were observed through a phase-contrast microscope and a fluorescence microscope (FIG. 3A). […]

## CC(CCC(=O)NC(CCCCNC(=S)Nc1ccc(-c2c3ccc(=O)cc-3oc3cc(O)ccc23)c(C(=O)O)c1)C(=O)O)C1CCC2C3C(O)CC4CC(O)CCC4(C)C3CC(O)C12C (stereo not shown) [CLF, cholyl-lysyl-fluorescein]
[1]
  CLF fluorescence in bile ducts: fluorescence was not, meanwhile, detected
[2]
  CLF fluorescence in bile ducts: fluorescence was not, meanwhile, detected
[3]
  CLF fluorescence in bile ducts (secretion to biliary canaliculi and movement to bile ducts): fluorescence was detected from the bile ducts
[4]
  CLF fluorescence in bile ducts (secretion to biliary canaliculi and movement to bile ducts): fluorescence was detected from the bile ducts
